Experimental findings from PubChem BioAssay (NCI) are described below.

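A five-concentration, 48-hour dose response in 96-well plates underlies each endpoint, interpolated linearly between surrounding concentrations. The concentration for 50% growth inhibition is given as GI50. TGI is the concentration that stops growth completely.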

Some test systems named below: UACC-257 melanoma; OVCAR-3 ovarian; A498 renal; NCI-H23 lung; MOLT-4 leukemia; SK-MEL-28 melanoma; NCI-H522 lung; SNB-19 CNS; CAKI-1 renal; MDA-MB-435.
What all share (test): growth of human tumour cells (NCI), 48 h

Consider `Cn1c(=O)c(Oc2ccc(F)cc2F)cc2cnc(NC3CCS(=O)(=O)CC3)nc21`, for which the GI50 in the assay with UACC-257 melanoma, in the assay on OVCAR-3 ovarian, in the assay on A498 renal, with NCI-H23 lung, with MOLT-4 leukemia and in the assay on SK-MEL-28 melanoma was > 25 µM throughout. Further, the GI50 was > 14.3 µM with NCI-H522 lung, > 25 µM with SNB-19 CNS, > 25 µM in the assay with CAKI-1 renal and > 25 µM in the assay with MDA-MB-435. Besides, the TGI in the assay with UACC-257 melanoma, in the assay with OVCAR-3 ovarian, in the assay with A498 renal, in the assay on NCI-H23 lung, with MOLT-4 leukemia and in the assay on SK-MEL-28 melanoma was > 25 µM throughout. The TGI with NCI-H522 lung, with SNB-19 CNS, in the assay on CAKI-1 renal and in the assay on MDA-MB-435 was > 25 µM each time.
As for `OCc1ccc(N2CCc3ccccc3C2)cc1Cl`, the GI50 in the assay with OVCAR-3 ovarian is < 0.0161 µM; with A498 renal, < 0.015 µM; in the assay with NCI-H23 lung it was 13.9 µM; in the assay with MOLT-4 leukemia, 27.2 µM; in the assay on SK-MEL-28 melanoma, 23 µM; with NCI-H522 lung it was 17.2 µM. The GI50 in the assay on SNB-19 CNS was 31 µM; in the assay on CAKI-1 renal, 0.568 µM; with MDA-MB-435 it was 23.2 µM. Also, the TGI is 0.0389 µM with OVCAR-3 ovarian; 0.0355 µM in the assay with A498 renal; 44 µM with NCI-H23 lung; > 78.7 µM with MOLT-4 leukemia; > 82.9 µM in the assay with SK-MEL-28 melanoma; 61.1 µM in the assay with NCI-H522 lung. For the same compound, the results for the TGI in the assay on SNB-19 CNS, in the assay on CAKI-1 renal and with MDA-MB-435 were > 100 µM, 14.1 µM and > 75.8 µM, respectively.
In the case of `CC(=O)Oc1ccc(/C(=C(\C)c2ccc(Cl)cc2)c2ccc(OCCN3CCCCC3)cc2)cc1`, the GI50 with UACC-257 melanoma is 2.05 µM; in the assay with OVCAR-3 ovarian, 1.65 µM; in the assay on A498 renal it was 3.62 µM; with NCI-H23 lung, 1.82 µM; with MOLT-4 leukemia it was 1.73 µM; in the assay on SK-MEL-28 melanoma, 2.01 µM. The GI50 was 1.71 µM in the assay on NCI-H522 lung, 2.26 µM with SNB-19 CNS and 1.7 µM with MDA-MB-435. The TGI in the assay on UACC-257 melanoma was 4.11 µM; in the assay on OVCAR-3 ovarian, 3.25 µM; in the assay on A498 renal, 15.2 µM; with NCI-H23 lung, 4.43 µM; in the assay with MOLT-4 leukemia, 5.36 µM; in the assay on SK-MEL-28 melanoma it was 3.89 µM. The TGI with NCI-H522 lung is 3.49 µM; with SNB-19 CNS, 5.8 µM; in the assay on MDA-MB-435, 3.26 µM.
As for `CC(C)(C)CC(N)=O`, the TGI in the assay with UACC-257 melanoma, in the assay on OVCAR-3 ovarian, in the assay with A498 renal, in the assay on NCI-H23 lung, in the assay on SK-MEL-28 melanoma and with NCI-H522 lung was > 100 µM each time. The TGI with SNB-19 CNS, with CAKI-1 renal and in the assay with MDA-MB-435 was > 100 µM in each case.
Turning to `COc1ccc(C2C=C(c3ccc4c(c3)OCO4)Oc3c2c(=O)oc2ccccc32)cc1OC` (configuration not stated), the TGI in the assay with OVCAR-3 ovarian is 15.5 µM; with A498 renal, 7.21 µM; with NCI-H23 lung, > 46.2 µM; in the assay on MOLT-4 leukemia, > 100 µM; in the assay with SK-MEL-28 melanoma it was > 100 µM; in the assay with NCI-H522 lung, > 66.3 µM. Moreover, the TGI with SNB-19 CNS was > 100 µM; in the assay on CAKI-1 renal it was > 100 µM; with MDA-MB-435 it was 0.529 µM.
Regarding `CS(=O)(=O)CC(=O)c1ccccc1`, the TGI with UACC-257 melanoma, with OVCAR-3 ovarian, in the assay on A498 renal, in the assay on NCI-H23 lung, with MOLT-4 leukemia and in the assay with SK-MEL-28 melanoma was > 100 µM in each case. The TGI with NCI-H522 lung, with SNB-19 CNS and in the assay on MDA-MB-435 was > 100 µM in each case.
In the case of `COc1ccc(/C=C2\C=C(c3ccccc3)N(CCc3ccccc3)C2=O)cc1OC`, the GI50 is 20.2 µM with UACC-257 melanoma; 4.82 µM in the assay with OVCAR-3 ovarian; 2.25 µM with A498 renal; 17 µM with NCI-H23 lung; 6.76 µM with SK-MEL-28 melanoma; 9.8 µM in the assay with NCI-H522 lung. Besides, the figures for the GI50 in the assay on SNB-19 CNS, in the assay on CAKI-1 renal and with MDA-MB-435 were 5.08 µM, 7.53 µM and 4.78 µM, respectively. Besides, the TGI in the assay on UACC-257 melanoma was 86.8 µM; in the assay on OVCAR-3 ovarian, 17.8 µM; with A498 renal, 5.32 µM; in the assay with NCI-H23 lung it was > 100 µM; with SK-MEL-28 melanoma, 68.1 µM; in the assay with NCI-H522 lung it was 36 µM. The TGI with SNB-19 CNS was 21.5 µM; in the assay on CAKI-1 renal it was > 100 µM; with MDA-MB-435, > 100 µM.
On to `Cn1c(/C=C/[N+](=O)[O-])cc2ccccc21`, for which the GI50 with UACC-257 melanoma was 2.11 µM; with OVCAR-3 ovarian it was 1.66 µM; in the assay with A498 renal, 2.19 µM; in the assay with NCI-H23 lung it was 2.73 µM; with MOLT-4 leukemia, 5.36 µM; in the assay with SK-MEL-28 melanoma, 15.7 µM. Also, the GI50 is 2.22 µM in the assay on NCI-H522 lung, 11.1 µM in the assay on SNB-19 CNS and 1.69 µM with MDA-MB-435. The TGI in the assay with UACC-257 melanoma was 6.86 µM; in the assay on OVCAR-3 ovarian, 3.49 µM; in the assay on A498 renal, 9.27 µM; with NCI-H23 lung, 17.1 µM; in the assay on MOLT-4 leukemia, 58 µM; in the assay with SK-MEL-28 melanoma, 34.5 µM. Moreover, the values for the TGI in the assay with NCI-H522 lung, in the assay with SNB-19 CNS and with MDA-MB-435 were 7.43 µM, 28.8 µM and 4.34 µM, respectively.
As to `COc1cc(C(=O)Nc2cc(OC)c3ccn(C)c3c2)cc2c1C[C@]1(C)CC[C@@H](O)C(C)(C)[C@H]1O2`, the GI50 is 1.63 µM with UACC-257 melanoma; 1.68 µM in the assay with OVCAR-3 ovarian; 0.149 µM with A498 renal; 2.32 µM in the assay on NCI-H23 lung; 0.21 µM in the assay on MOLT-4 leukemia; 1.77 µM with SK-MEL-28 melanoma. The results for the GI50 in the assay on NCI-H522 lung, in the assay with SNB-19 CNS and in the assay on MDA-MB-435 were 1.44 µM, 2.7 µM and 1.01 µM, respectively. The TGI with UACC-257 melanoma was 30.7 µM; with OVCAR-3 ovarian it was 4.86 µM; in the assay with A498 renal, 1.89 µM; with NCI-H23 lung it was 18.4 µM; in the assay on MOLT-4 leukemia, 1.45 µM; in the assay on SK-MEL-28 melanoma, 37.1 µM. For the same compound, the TGI turned out to be 7.4 µM in the assay on NCI-H522 lung, 90.2 µM in the assay with SNB-19 CNS and 3.38 µM in the assay on MDA-MB-435.
